Laboratory results published in patent US20080077999A1, “Using Nonhuman Animal Model, Method of Measuring Transcription Activity Method of Measuring Cell Quantity and Method of Measuring Tumor Volume” (Eisai R&D Management Co., Ltd., priority 2004, published 2008).

B1: IL4: human IL4 (Calbiochem, 407635), used as stimulus of STAT6-PLAP reporter cells (protein, UniProt P05112 25-153, looked up)
Interleukin-4: HKCDITLQEIIKTLNSLTEQKTLCTELTVTDIFAASKNTTEKETFCRAATVLRQFYSHHEKDTRCLGATAQQFHRHKQLIRFLKRLDRNLWGLAGLNSCPVKEANQSTLENFLERLKTIMREKYSKCSS

Assays:
[1] = tested on: transcriptional activity through STAT6 activation by IL4 stimulation; conditions: in vitro; cited from earlier work
[2] = tested on: transcriptional activity through STAT6 activation by IL4 stimulation; assay: Test of inhibitory action in mouse air pouch model introduced with E9 cells (blood PLAP activity after IL4 stimulation); assay type: in vivo, CDF1 mouse; conditions: orally administered 20 mg/kg, 1 hour before IL4 injection into air pouch; plasma 24 hours after IL4
Method: 5% cytodex3 (Amersham Bioscience, 17-0485-01) solution and 2% CMC solution (Daiichi Kogyo Seiyaku Co., Ltd.) were prepared. More specifically, 5 g of cytodex3 was suspended in 100 ml of PBS (SIGMA, R8537) and sterilized by autoclaving. On the other hand, the 2% CMC solution was prepared by adding 2 g of CMC in 100 ml of PBS while stirring with a stirrer bar and followed by sterilization by autoclaving.
Then, E9 cells were subjected to trypsin-EDTA treatment to be removed from the wall of the vessel and the cells were suspended in DMEM to make 1.0×10^6 cells/ml. 0.2 g of cytodex3 was mixed with 1.0×10^7 cells/ml of E9 cells. More specifically, 4 ml of 5% cytodex3 solution was mixed with 10 ml of 1.0×10^6 cells/ml of cell suspension. Then, the cell/cytodex3 suspension was inoculated on a non-tissue culture plate (IWAKI, SH90-15) and cultured in a CO2 incubator. […]
After 24 hours, orbital blood drawing was conducted using a heparin-treated Terumo hematocrit capillary tube (TERUMO Corporation, VC-H075H). […] To inactivate endogenous alkaline phosphatase, the plasma sample was treated in a hot water bath at 65° C. for 10 minutes and then PLAP activity derived from E9 cells in the plasma was measured. […] Subsequently, while shielding light, the mixture was incubated at room temperature for 1 hour, followed by measurement of intensity of chemiluminescence using a plate reader (Perkin Elmer, ARVO).

[3] = tested on: E9 cell (HEK293 with STAT6-PLAP reporter plasmid and STAT6-expression vector plasmid); assay: PLAP activity in culture supernatant of cells stably expressing STAT6-PLAP reporter plasmid and STAT6 expression vector plasmid upon human IL4 stimulation; assay type: cell-based; conditions: human IL4 final concentration 1 ng/ml, next day
Method: More specifically, the cloned cell was subjected to trypsin-EDTA treatment to be removed from the wall of the vessel and suspended in DMEM and cells were inoculated on a 96-well cell culture plate to be 1.0×10^4 cells/190 μl/well. On the next day, 10 μl of 20 ng/ml human IL4 (Calbiochem, 407635) was added to the culture medium at a final concentration of 1 ng/ml. On the next day, the culture supernatant was recovered and the PLAP activity in the culture supernatant was measured.
More specifically, 100 μl of PLAP buffer (0.28 M Na2CO3—NaHCO3 pH 10.0, 8 mM MgSO4) was added to a black plate for ELISA (Sumitomo Bakelite Co., Ltd., No. MS-8496K), and 10 μl of the culture supernatant which had been treated in a hot water bath at 65° C. for 10 minutes was added thereto. Then, 50 μl of Lumi-Phos 530 (Lumigen, Inc.) was added, followed by mixing. Subsequently, while shielding light, the mixture was incubated at room temperature for 1 hour, followed by measurement of intensity of chemiluminescence using a plate reader (Perkin Elmer, ARVO). […] Hereinafter, this clone is named E9 cell.

[4] = tested on: E9 cells (STAT6-PLAP reporter); assay: Mouse air pouch model introduced with E9 cells: plasma PLAP activity upon human IL4 stimulation; assay type: in vivo, CDF1 mouse; conditions: 1 ml of 3 ng/ml human IL4 injected into air pouch, plasma after 24 hours
Method: 5% cytodex3 (Amersham Bioscience, 17-0485-01) solution and 2% carboxymethylcellulose (hereinafter, also referred to as CMC) solution (Daiichi Kogyo Seiyaku Co., Ltd.) were prepared. More specifically, 5 g of cytodex3 was suspended in 100 ml of PBS (SIGMA, R8537) and sterilized in an autoclave. On the other hand, the 2% CMC solution was prepared by adding 2 g of CMC in 100 ml of PBS while stirring with a stirrer bar, followed by sterilization in the autoclave.
Then, the E9 cells were subjected to trypsin-EDTA treatment to be removed from the wall of the vessel and the cells were suspended in DMEM to be 1.0×10^6 cells/ml. 0.2 g of cytodex3 was mixed with 1.0×10^7 cells/ml E9 cells. More specifically, 4 ml of 5% cytodex3 solution was added to 10 ml of 1.0×10^6 cells/ml cell suspension. […]
Under anesthesia with diethyl ether (WAKO, 055-01155), 3 ml of air was introduced under the skin on the back of a CDF1 mouse (Charles River Japan) using a 5-ml syringe with a 27 G needle to make an air pouch. […] To inactivate endogenous alkaline phosphatases, the plasma sample was treated in a hot water bath at 65° C. for 10 minutes and then the PLAP activity derived from E9 cells in the plasma was measured. […] Subsequently, while shielding light, the mixture was incubated at room temperature for 1 hour, followed by measurement of intensity of chemiluminescence using a plate reader (Perkin Elmer, ARVO).

Molecule	inhibition of transcriptional activity through STAT6 activation by IL4 stimulation [1]	suppression of the PLAP activity activated by the IL4 stimulation as compared with the control group [2] [%]	PLAP activity in culture supernatant upon IL4 stimulation compared to non-stimulating condition [3]	PLAP activity secreted in blood upon IL4 stimulation [4]
Cl.Cl.Cl.Fc1ccc(-c2n[nH]cc2-c2ccc3ncc(-c4nccs4)n3c2)cc1 [test compound, 2-(6-[3-(4-fluorophenyl)-1H-4-pyrazolyl]imidazo[1,2-a]pyridin-3-yl)-1,3-thiazole trihydrochloride]	inhibit transcriptional activity through STAT6 activation	94.1		
B1			higher PLAP activity was induced	remarkable increase of PLAP activity
